{"source": "patent US20250339426A1", "about": "“GCN2 MODULATOR FOR TREATING CANCER” (HIBERCELL, INC., priority 2022, published 2025)", "key": {"HIF1α": {"test_system": "HIF1α", "assay": "IHC of patient tumor biopsies, Phase 1a/b study", "assay_type": "in vivo, human", "settings": "colorectal and head and neck cancer patients, 10 mg and 20 mg QD, cycle 3 vs screening", "method": "A first-in-human, multicenter, open-label, Phase 1a/b dose-escalation and dose-expansion study to establish the maximum tolerated dose (MTD), recommended phase II dose (RP2D), and evaluate the safety and tolerability of once daily (QD) oral dosing of HC-7366 potassium salt monohydrate in a dose-escalating fashion in subjects with advanced solid tumors was conducted. Up to 36 subjects were enrolled into the Phase 1a dose-escalation part of the study. Approximately 50% of all subjects enrolled in this study were subjects with squamous cell carcinoma of the head and neck (SCCHN), colorectal cancer (CRC), non-small cell lung cancer (NSCLC), and transitional cell carcinoma of the bladder (TCC). […] The study was conducted in the United States at approximately 3 to 5 sites. This Phase 1a/b study followed a traditional 3+3 design. The starting dose level was 10 mg QD, escalating to 20, 40, 75, 125, and 150 mg QD as safety allowed. All doses were administered in the fasting state with water at least 1 hour before food or at least 2 hours after food. […]\nTumor biopsies collected from colorectal cancer and head and neck cancer study patients at the time of screening and at cycle 3 were analyzed for HIF1α expression by IHC. […]"}, "ATF4, ASNS in FaDu cells": {"test_system": "ATF4, ASNS in FaDu cells", "assay": "Jess protein analysis, FaDu cells", "assay_type": "cell-based, human", "settings": "0.01 and 0.1 μM, 72 hr, sgControl vs sgGCN2", "method": "Cell lysates were obtained from FaDu sgControl or sgGCN2 cells treated with HC-7366 (0, 0.01, 0.1 and 1 μM) for 72 hr. Ice cold 1x radioimmunoprecipitation assay (RIPA) lysis buffer supplemented with protease and phosphatase inhibitors was added to the cell pellets, on ice. After 30 min on ice the cell lysates were centrifuged at 4° C., 12,000 rpm for 15 minutes and the supernatant was collected. Protein concentration was determined using BCA kit. The cell lysates were mixed with 5×SDS loading buffer and denatured at 95° C. for 5 minutes. 1 μg lysate was run on Jess capillary and results were analyzed by compass simple western software. The following primary antibodies were used: p-GCN2 T899 (Abcam #ab75836), GCN2 (Cell Signaling #3302), ATF4 (Cell Signaling #11815) and ASNS (Proteintech #14681). Anti-rabbit secondary antibody was from ProteinSimple #042-206."}}}
{"smiles": "CNC(=O)c1ncn2cc(-c3c(F)ccc(NS(=O)(=O)c4cc(Cl)cnc4OC)c3F)ncc12", "note": "[HC-7366, 6-(3-((5-chloro-2-methoxypyridine)-3-sulfonamido)-2,6-difluorophenyl)-N-methylimidazo[1,5-a]pyrazine-1-carboxamide]", "values": [{"measurement": "HIF1α expression in tumor biopsies", "setting": "HIF1α", "result": "Profound inhibition"}, {"measurement": "levels of ATF4 and ASNS", "setting": "ATF4, ASNS in FaDu cells", "result": "GCN2-dependent increase"}]}
